# Literature values, collected in US20070142447A1, “Veterinary composition comprising an arylpyrazole and a nitroenamine with enhanced antiparasitic activity” (Intervet International B.V., priority 2004, published 2007).
# Where two headings read alike, the source gives them in different places.
# Assays:
# fleas = conditions: after 72 hours
# [1] = cats
# [2] = dogs
structure (smiles),measurement,setting,value
"CCN(Cc1ccc(Cl)nc1)/C(=C/[N+](=O)[O-])NC [nitenpyram, (E)-N-(6-chloro-pyridin-3-ylmethyl)-N-ethyl-N-methyl-2-methyl-2-nitrovinylidenediamine]",lethality of nitenpyram levels in host blood to fleas,fleas,not lethal to fleas
same,half-life in the blood,[1],7.7 h
same,mean residence time,[1],10.2 h
same,half-life in the blood,[2],2.8 h
same,mean residence time,[2],4.1 h
